Source: patent publication US7384734B2, “Compositions and methods for determining the susceptibility of a pathogenic virus to protease inhibitors” (Monogram Biosciences, Inc., priority 2002, dated 2008)

Test system: HIV-1 from patient plasma samples
Assay: PHENOSENSE HIV phenotypic drug susceptibility assay (fold change in IC50 versus NL4-3 reference strain)
Format: cell-based
Description: A “fold change” is a numeric comparison of the drug susceptibility of a patient virus and a drug-sensitive reference virus. It is the ratio of the Patient IC50 to the drug-sensitive reference IC50, i.e., Patient IC50/Reference IC50=Fold Change (“FC”). […] A fold change less than 1 indicates the patient virus is more sensitive than the drug-sensitive reference virus. […] A fold change less than the clinical cutoff value means the patient virus is sensitive to that drug.
In one embodiment, the phenotypic analysis is performed using PHENOSENSE™ (ViroLogic Inc., South San Francisco, Calif.). See Petropoulos et al., 2000, Antimicrob. Agents Chemother. 44:920-928; U.S. Pat. Nos. 5,837,464 and 6,242,187. PHENOSENSE™ is a phenotypic assay that achieves the benefits of phenotypic testing and overcomes the drawbacks of previous assays.
A resistance test vector (“RTV”) can then be constructed by incorporating the amplified viral gene sequences into a replication defective viral vector by using any method known in the art of incorporating gene sequences into a vector. In one embodiment, restrictions enzymes and conventional cloning methods are used. See Maniatis et al., 1989, Molecular Cloning: A Laboratory Manual, Cold Spring Harbor Laboratory, N.Y. and Ausubel et al., 1989, Current Protocols in Molecular Biology, Greene Publishing Associates and Wiley Interscience, N.Y. In some embodiments, ApaI and PinAI restriction enzymes are used. Preferably, the replication defective viral vector is the indicator gene viral vector (“IGVV”). In some embodiments, the viral vector contains a means for detecting replication of the RTV. Preferably, the viral vector contains a luciferase expression cassette.
The assay can be performed by first co-transfecting host cells with RTV DNA and a plasmid that expresses the envelope proteins of another retrovirus, for example, amphotropic murine leukemia virus (MLV). Following transfection, virus particles can be harvested and used to infect fresh target cells. The completion of a single round of viral replication can be detected by the means for detecting replication contained in the vector. In one embodiment, the completion of a single round of viral replication results in the production of luciferase. Serial concentrations of anti-viral agents can be added at either the transfection step or the infection step.
Susceptibility to the anti-viral agent can be measured by comparing the replication of the vector in the presence and absence of the anti-viral agent. For example, susceptibility to the anti-viral agent can be measured by comparing the luciferase activity in the presence and absence of the anti-viral agent. Susceptible viruses would produce low levels of luciferase activity in the presence of anti-viral agents, whereas viruses with reduced susceptibility would produce higher levels of luciferase activity.
The phenotypic assay was conducted using the PHENOSENSE™ (Virologic, South San Francisco, Calif.) HIV assay (Petropoulos et al., 2000, Antimicrob. Agents Chemother. 44:920-928; U.S. Pat. Nos. 5,837,464 and 6,242,187). Plasma samples were collected from HIV-1-infected patients. Repeat samples from the same patient were removed to prevent possible bias resulting from unique combinations of mutations.
The genotype data was obtained by sequencing the protease of the HIV-1 present in each patient's sample and determining the sequence changes with respect to the sequence of the NL4-3 (GenBank Accession No. AF324493) HIV. The amino sequence for the NL4-3 protease is provided in SEQ. ID. No. 1 (FIG. 12A) and the nucleic acid sequence for the NL4-3 protease gene is provided in SEQ. ID. No. 2 (FIG. 12B).

[1] = genotype group: 32, 46, 47, 54, n=4
[2] = genotype group: 32, 47, 54, 84, n=5
[3] = genotype group: 32, 47, 54, n=17
[4] = genotype group: 46 (M46I or L), 54, n=16
[5] = genotype group: 46, 54, 84, n=29
[6] = genotype group: 47, 54, 84, n=3
[7] = genotype group: 54 (I54L or M only), n=9
[8] = genotype group: not containing any tested mutation, n=1096
[9] = genotype group: protease mutation 32, n=26
[10] = genotype group: wild-type (all primary positions), n=623

For `CC(C)CN(C[C@@H](O)[C@H](Cc1ccccc1)NC(=O)O[C@H]1CCOC1)S(=O)(=O)c1ccc(N)cc1` [APV, amprenavir], the “median FC in each group” value (each group carrying APV resistance mutations (Table 9)) was no less than 9.5 fold, the “Median FC” value (genotype group: 32, 46, 47, 54, 84, n=6) was 130 and the “Median FC” value [1] was 130. The “Median FC” value [2] was 130, the “Median FC” value [3] was 40 and the “Median FC” value (genotype group: 32, 47, n=23) was 12. The “Median FC” value (genotype group: 32, 84, n=3) was 51, the “Median FC” value [4] was 84 and the “Median FC” value [5] was 47. For the same compound, the “Median FC” value [6] was 24, the “Median FC” value (genotype group: 47, 54, n=3) was 42 and the “Median FC” value (genotype group: 47, 84, n=4) was 12. For the same compound, the “Median FC” value (genotype group: 47, n=8) was 26, the “Median FC” value (genotype group: 50, n=42) was 20 and the “Median FC” value [7] was 22. For the same compound, the “Median FC” value (genotype group: 54, 84, n=22) was 67, the “Median FC” value (genotype group: 84, n=247) was 11 and the “Median FC” value [8] was 1.6. For the same compound, the “Median FC” value [9] was 9.5 and the “Median FC” value [10] was 0.6.
`Cc1cccc(C)c1OCC(=O)N[C@@H](Cc1ccccc1)[C@@H](O)C[C@H](Cc1ccccc1)NC(=O)[C@H](C(C)C)N1CCCNC1=O` [LPV, lopinavir] was tested, and the “Median FC” value [1] was 208, the “Median FC” value [2] was 227 and the “Median FC” value [3] was 146. The “Median FC” value (genotype group: 32, 47, n=23) was 7.5, the “Median FC” value (genotype group: 32, 84, n=3) was 124 and the “Median FC” value [4] was 138. For the same compound, the “Median FC” value [5] was 30, the “Median FC” value [6] was 20 and the “Median FC” value (genotype group: 47, 54, n=3) was 88. The “Median FC” value (genotype group: 47, 84, n=4) was 28, the “Median FC” value (genotype group: 50, n=42) was 54 and the “Median FC” value [7] was 160. For the same compound, the “Median FC” value (genotype group: 54, 84, n=22) was 93, the “Median FC” value (genotype group: 84, n=247) was 7.1 and the “Median FC” value [8] was 2.1. The “Median FC” value [9] was 12 and the “Median FC” value [10] was 0.6.
